{
  "source": "patent US11739100B2",
  "about": "“2,3-dihydro-1h-imidazo{1,2-a}pyrimidin-5-one and this 1,2,3,4-tetrahydropyrimido{1,2-a}pyrimidin-6-one derivatives comprising a substituted morpholine, preparation thereof and pharmaceutical use thereof” (SANOFI, priority 2012, dated 2023)",
  "target": "T1, recombinant Vps34 (Homo sapiens, UniProt Q8NEB9)",
  "T1 construct": "purchased Invitrogen PV5126",
  "T1 sequence (Q8NEB9 whole entry)": "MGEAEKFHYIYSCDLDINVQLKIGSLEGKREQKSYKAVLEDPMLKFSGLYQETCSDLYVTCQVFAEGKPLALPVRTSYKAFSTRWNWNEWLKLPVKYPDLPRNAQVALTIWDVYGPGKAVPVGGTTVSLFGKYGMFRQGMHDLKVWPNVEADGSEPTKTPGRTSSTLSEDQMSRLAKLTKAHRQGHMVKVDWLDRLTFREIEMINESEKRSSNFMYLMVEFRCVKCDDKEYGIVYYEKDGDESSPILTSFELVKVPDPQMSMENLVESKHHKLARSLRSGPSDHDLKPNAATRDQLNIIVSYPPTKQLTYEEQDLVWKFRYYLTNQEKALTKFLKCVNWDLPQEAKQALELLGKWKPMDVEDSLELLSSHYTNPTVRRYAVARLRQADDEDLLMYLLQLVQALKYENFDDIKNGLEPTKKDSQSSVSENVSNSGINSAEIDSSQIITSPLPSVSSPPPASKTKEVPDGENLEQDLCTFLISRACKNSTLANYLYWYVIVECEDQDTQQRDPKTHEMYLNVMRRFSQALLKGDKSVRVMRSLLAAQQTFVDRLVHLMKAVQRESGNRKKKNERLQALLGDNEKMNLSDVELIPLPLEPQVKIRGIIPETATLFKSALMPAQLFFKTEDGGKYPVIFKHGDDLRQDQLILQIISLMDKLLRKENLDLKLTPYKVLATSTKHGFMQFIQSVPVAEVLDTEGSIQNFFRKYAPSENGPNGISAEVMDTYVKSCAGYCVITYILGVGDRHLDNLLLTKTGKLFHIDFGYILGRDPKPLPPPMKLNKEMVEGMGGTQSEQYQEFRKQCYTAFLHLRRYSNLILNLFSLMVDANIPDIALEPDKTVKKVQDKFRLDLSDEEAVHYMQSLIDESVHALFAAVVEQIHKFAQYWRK",
  "assay": "Phosphorylation of phosphatidylinositol (PI) by Vps34 in vitro, ADP detected by TR-FRET (HTRF Transcreener ADP)",
  "format": "biochemical",
  "conditions": "10 μM ATP, 55 μg/ml PI, approximately 3 nM Vps34, 1 hour at ambient temperature; absolute IC50, mean of two independent experiments; read-out: IC50 activity range",
  "data": [
    {"smiles": "O=c1cc(N2CC3CCC(C2)O3)nc2n1CC[C@@H](C(F)(F)F)N2Cc1ccnn1C(F)F", "note": "[Example 166, (S)-9-(2-Difluoromethyl-2H-pyrazol-3-ylmethyl)-2-(8-oxa-3-aza-bicyclo[3.2.1]oct-3-yl)-8-trifluoromethyl-6,7,8,9-tetrahydro-pyrimido[1,2-a]-pyrimidin-4-one]", "values": [
      {"measurement": "IC50", "value": "10 to 100", "unit": "nM"}
    ]},
    {"smiles": "O=c1cc(N2CC3CCC(C2)O3)nc2n1CC[C@@H](C(F)(F)F)N2Cc1ccn(C(F)F)n1", "note": "[Example 167, (S)-9-(1-Difluoromethyl-1H-pyrazol-3-ylmethyl)-2-(8-oxa-3-aza-bicyclo[3.2.1]oct-3-yl)-8-trifluoromethyl-6,7,8,9-tetrahydro-pyrimido[1,2-a]-pyrimidin-4-one]", "values": [
      {"measurement": "IC50", "value": "10 to 100", "unit": "nM"}
    ]},
    {"smiles": "O=c1cc(N2CC3CCC(C2)O3)nc2n1CC[C@@H](C(F)(F)F)N2Cc1ccc(Cl)nc1", "note": "[Example 168, (S)-9-(6-Chloro-pyridin-3-ylmethyl)-2-(8-oxa-3-aza-bicyclo[3.2.1]oct-3-yl)-8-trifluoromethyl-6,7,8,9-tetrahydro-pyrimido[1,2-a]-pyrimidin-4-one]", "values": [
      {"measurement": "IC50", "value": "10 to 100", "unit": "nM"}
    ]},
    {"smiles": "O=c1cc(N2CC3CCC(C2)O3)nc2n1CC[C@@H](C(F)(F)F)N2Cc1ccon1", "note": "[Example 169, (S)-9-Isoxazol-3-yl-methyl-2-(8-oxa-3-azabicyclo[3.2.1]oct-3-yl)-8-trifluoromethyl-6,7,8,9-tetrahydro-pyrimido[1,2-a]-pyrimidin-4-one]", "values": [
      {"measurement": "IC50", "value": "10 to 100", "unit": "nM"}
    ]},
    {"smiles": "O=C(CN1c2nc(N3CC4CCC(C3)O4)cc(=O)n2CC[C@H]1C(F)(F)F)c1cccnc1", "note": "[Example 170, (S)-2-(8-Oxa-3-aza-bicyclo[3.2.1]oct-3-yl)-9-(2-oxo-2-pyridin-3-ylethyl)-8-trifluoromethyl-6,7,8,9-tetrahydro-pyrimido[1,2-a]-pyrimidin-4-one]", "values": [
      {"measurement": "IC50", "value": "10 to 100", "unit": "nM"}
    ]},
    {"smiles": "O=C(CN1c2nc(N3CC4CCC(C3)O4)cc(=O)n2CC[C@H]1C(F)(F)F)c1ccccn1", "note": "[Example 171, (S)-2-(8-Oxa-3-aza-bicyclo[3.2.1]oct-3-yl)-9-(2-oxo-2-pyridin-2-ylethyl)-8-trifluoromethyl-6,7,8,9-tetrahydro-pyrimido[1,2-a]-pyrimidin-4-one]", "values": [
      {"measurement": "IC50", "value": "10 to 100", "unit": "nM"}
    ]},
    {"smiles": "C[C@H]1COCCN1c1cc(=O)n2c(n1)N(Cc1ccc(Cl)s1)[C@H](C(F)(F)F)CC2", "note": "[Example 178, (S)-9-(5-Chloro-thiophen-2-ylmethyl)-2-((S)-3-methyl-morpholin-4-yl)-8-trifluoromethyl-6,7,8,9-tetrahydro-pyrimido[1,2-a]-pyrimidin-4-one]", "values": [
      {"measurement": "IC50", "value": "10 to 100", "unit": "nM"}
    ]},
    {"smiles": "C[C@@H]1COCCN1c1cc(=O)n2c(n1)N(CC(=O)c1ccccn1)[C@](C)(C(F)(F)F)C2", "note": "[Example 179, (S)-2-Methyl-7-((R)-3-methylmorpholin-4-yl)-1-(2-oxo-2-pyridin-2-ylethyl)-2-trifluoromethyl-2,3-dihydro-1H-imidazo[1,2-a]-pyrimidin-5-one]", "values": [
      {"measurement": "IC50", "value": "< 10", "unit": "nM"}
    ]},
    {"smiles": "C[C@@H]1COCCN1c1cc(=O)n2c(n1)N(CC(=O)c1cccnc1)[C@](C)(C(F)(F)F)C2", "note": "[Example 180, (S)-2-Methyl-7-((R)-3-methylmorpholin-4-yl)-1-(2-oxo-2-pyridin-3-ylethyl)-2-trifluoromethyl-2,3-dihydro-1H-imidazo[1,2-a]-pyrimidin-5-one]", "values": [
      {"measurement": "IC50", "value": "< 10", "unit": "nM"}
    ]},
    {"smiles": "C[C@@H]1COCCN1c1cc(=O)n2c(n1)N(Cc1ccnc(Cl)c1)[C@](C)(C(F)(F)F)C2", "note": "[Example 181, (S)-1-(2-Chloro-pyridin-4-ylmethyl)-2-methyl-7-((R)-3-methylmorpholin-4-yl)-2-trifluoromethyl-2,3-dihydro-1H-imidazo[1,2-a]-pyrimidin-5-one]", "values": [
      {"measurement": "IC50", "value": "< 10", "unit": "nM"}
    ]},
    {"smiles": "C[C@@H]1COCCN1c1cc(=O)n2c(n1)N(Cc1cnco1)[C@](C)(C(F)(F)F)C2", "note": "[Example 182, (S)-2-Methyl-7-((R)-3-methylmorpholin-4-yl)-1-oxazol-5-ylmethyl-2-trifluoromethyl-2,3-dihydro-1H-imidazo[1,2-a]-pyrimidin-5-one]", "values": [
      {"measurement": "IC50", "value": "10 to 100", "unit": "nM"}
    ]},
    {"smiles": "C[C@@H]1COCCN1c1cc(=O)n2c(n1)N(Cc1cocn1)[C@](C)(C(F)(F)F)C2", "note": "[Example 183, (S)-2-Methyl-7-((R)-3-methylmorpholin-4-yl)-1-oxazol-4-ylmethyl-2-trifluoromethyl-2,3-dihydro-1H-imidazo[1,2-a]-pyrimidin-5-one]", "values": [
      {"measurement": "IC50", "value": "< 10", "unit": "nM"}
    ]},
    {"smiles": "C[C@@H]1COCCN1c1nc2n(c(=O)c1F)C[C@@](C)(C(F)(F)F)N2Cc1ccnc(Cl)c1", "note": "[Example 184, (S)-1-(2-Chloro-pyridin-4-ylmethyl)-6-fluoro-2-methyl-7-((R)-3-methylmorpholin-4-yl)-2-trifluoromethyl-2,3-dihydro-1H-imidazo[1,2-a]-pyrimidin-5-one]", "values": [
      {"measurement": "IC50", "value": "< 10", "unit": "nM"}
    ]},
    {"smiles": "CC(C)C(=O)CN1c2nc(N3CCOC[C@H]3C)c(F)c(=O)n2C[C@@]1(C)C(F)(F)F", "note": "[Example 185, (S)-6-Fluoro-2-methyl-7-((R)-3-methyl-morpholin-4-yl)-1-(3-methyl-2-oxobutyl)-2-trifluoromethyl-2,3-dihydro-1H-imidazo[1,2-a]-pyrimidin-5-one]", "values": [
      {"measurement": "IC50", "value": "< 10", "unit": "nM"}
    ]},
    {"smiles": "C[C@@H]1COCCN1c1nc2n(c(=O)c1F)C[C@@](C)(C(F)(F)F)N2CC(=O)C1CCOCC1", "note": "[Example 186, (S)-6-Fluoro-2-methyl-7-((R)-3-methyl-morpholin-4-yl)-1-[2-oxo-2-(tetrahydro-pyran-4-yl)ethyl]-2-trifluoromethyl-2,3-dihydro-1H-imidazo[1,2-a]-pyrimidin-5-one]", "values": [
      {"measurement": "IC50", "value": "< 10", "unit": "nM"}
    ]},
    {"smiles": "C[C@@H]1COCCN1c1nc2n(c(=O)c1F)C[C@@](C)(C(F)(F)F)N2CC(=O)C1CC1", "note": "[Example 187, (S)-1-(2-Cyclopropyl-2-oxoethyl)-6-fluoro-2-methyl-7-((R)-3-methylmorpholin-4-yl)-2-trifluoromethyl-2,3-dihydro-1H-imidazo[1,2-a]-pyrimidin-5-one]", "values": [
      {"measurement": "IC50", "value": "< 10", "unit": "nM"}
    ]},
    {"smiles": "C[C@@H]1COCCN1c1nc2n(c(=O)c1F)C[C@@](C)(C(F)(F)F)N2CC(=O)c1cccnc1", "note": "[Example 189, (S)-6-Fluoro-2-methyl-7-((R)-3-methyl-morpholin-4-yl)-1-(2-oxo-2-pyridin-3-yl-ethyl)-2-trifluoromethyl-2,3-dihydro-1H-imidazo[1,2-a]-pyrimidin-5-one]", "values": [
      {"measurement": "IC50", "value": "< 10", "unit": "nM"}
    ]},
    {"smiles": "C[C@@H]1COCCN1c1cc(=O)n2c(n1)N(CC(=O)C1CCOCC1)[C@](C)(C(F)(F)F)C2", "note": "[Example 190, (S)-2-Methyl-7-((R)-3-methylmorpholin-4-yl)-1-[2-oxo-2-(tetrahydro-pyran-4-yl)ethyl]-2-trifluoromethyl-2,3-dihydro-1H-imidazo[1,2-a]-pyrimidin-5-one]", "values": [
      {"measurement": "IC50", "value": "< 10", "unit": "nM"}
    ]},
    {"smiles": "O=c1cc(N2CCOC(CF)C2)nc2n1CC[C@@H](C(F)(F)F)N2Cc1ccccc1", "note": "(stereo partly drawn) [Example 193, (S)-9-Benzyl-2-(2-fluoromethyl-morpholin-4-yl)-8-trifluoromethyl-6,7,8,9-tetrahydro-pyrimido[1,2-a]-pyrimidin-4-one]", "values": [
      {"measurement": "IC50", "value": "> 100", "unit": "nM"}
    ]},
    {"smiles": "CON(C)C(=O)CN1c2nc(N3CCOC[C@H]3C)cc(=O)n2CC[C@H]1C(F)(F)F", "note": "[Example 196, N-Methoxy-N-methyl-2-[(S)-8-((R)-3-methyl-morpholin-4-yl)-6-oxo-2-trifluoromethyl-3,4-dihydro-2H,6H-pyrimido[1,2-a]-pyrimidin-1-yl]-acetamide]", "values": [
      {"measurement": "IC50", "value": "< 10", "unit": "nM"}
    ]},
    {"smiles": "CONC(=O)CN1c2nc(N3CCOC[C@H]3C)cc(=O)n2CC[C@H]1C(F)(F)F", "note": "[Example 197, N-Methoxy-2-[(S)-8-((R)-3-methyl-morpholin-4-yl)-6-oxo-2-trifluoromethyl-3,4-dihydro-2H,6H-pyrimido[1,2-a]-pyrimidin-1-yl]-acetamide]", "values": [
      {"measurement": "IC50", "value": "10 to 100", "unit": "nM"}
    ]},
    {"smiles": "C[C@@H]1COCCN1c1cc(=O)n2c(n1)N(c1ccncc1)[C@H](C(F)(F)F)CC2", "note": "[Example 198, (S)-2-((R)-3-Methyl-morpholin-4-yl)-9-pyridin-4-yl-8-trifluoromethyl-6,7,8,9-tetrahydro-pyrimido[1,2-a]-pyrimidin-4-one]", "values": [
      {"measurement": "IC50", "value": "< 10", "unit": "nM"}
    ]},
    {"smiles": "C[C@@H]1COCCN1c1nc2n(c(=O)c1F)C[C@@](C)(C(F)(F)F)N2CC(=O)c1ccccn1", "note": "[Example 199, (S)-6-Fluoro-2-methyl-7-((R)-3-methyl-morpholin-4-yl)-1-(2-oxo-2-pyridin-2-yl-ethyl)-2-trifluoromethyl-2,3-dihydro-1H-imidazo[1,2-a]-pyrimidin-5-one]", "values": [
      {"measurement": "IC50", "value": "< 10", "unit": "nM"}
    ]},
    {"smiles": "C[C@@H]1COCCN1c1cc(=O)n2c(n1)N(CC(C)(C)O)[C@](C)(C(F)(F)F)CC2", "note": "[Example 200, (S)-9-(2-Hydroxy-2-methylpropyl)-8-methyl-2-((R)-3-methylmorpholin-4-yl)-8-trifluoromethyl-6,7,8,9-tetrahydro-pyrimido[1,2-a]-pyrimidin-4-one]", "values": [
      {"measurement": "IC50", "value": "< 10", "unit": "nM"}
    ]},
    {"smiles": "CC(C)c1nc(CN2c3nc(N4CCOC[C@H]4C)cc(=O)n3CC[C@H]2C(F)(F)F)no1", "note": "[Example 201, (S)-9-(5-Isopropyl-[1,2,4]oxadiazol-3-yl-methyl)-2-((R)-3-methylmorpholin-4-yl)-8-trifluoromethyl-6,7,8,9-tetrahydro-pyrimido[1,2-a]-pyrimidin-4-one]", "values": [
      {"measurement": "IC50", "value": "< 10", "unit": "nM"}
    ]},
    {"smiles": "C[C@@H]1COCCN1c1cc(=O)n2c(n1)N(Cc1noc(C3CC3)n1)[C@H](C(F)(F)F)CC2", "note": "[Example 202, (S)-9-(5-Cyclopropyl-[1,2,4]oxadiazol-3-yl-methyl)-2-((R)-3-methylmorpholin-4-yl)-8-trifluoromethyl-6,7,8,9-tetrahydro-pyrimido[1,2-a]-pyrimidin-4-one]", "values": [
      {"measurement": "IC50", "value": "< 10", "unit": "nM"}
    ]},
    {"smiles": "C[C@@H]1COCCN1c1cc(=O)n2c(n1)N(Cc1noc(C(C)(C)C)n1)[C@H](C(F)(F)F)CC2", "note": "[Example 203, (S)-9-(5-tert-Butyl-[1,2,4]oxadiazol-3-yl-methyl)-2-((R)-3-methylmorpholin-4-yl)-8-trifluoromethyl-6,7,8,9-tetrahydro-pyrimido[1,2-a]-pyrimidin-4-one]", "values": [
      {"measurement": "IC50", "value": "< 10", "unit": "nM"}
    ]},
    {"smiles": "C[C@@H]1COCCN1c1nc2n(c(=O)c1F)CC[C@@H](C(F)(F)F)N2CCO", "note": "[Example 204, (S)-3-Fluoro-9-(2-hydroxyethyl)-2-((R)-3-methylmorpholin-4-yl)-8-trifluoromethyl-6,7,8,9-tetrahydro-pyrimido[1,2-a]-pyrimidin-4-one]", "values": [
      {"measurement": "IC50", "value": "< 10", "unit": "nM"}
    ]},
    {"smiles": "C[C@H](O)CN1c2nc(N3CCOC[C@H]3C)cc(=O)n2CC[C@H]1C(F)(F)F", "note": "[Example 205, (S)-9-((S)-2-Hydroxy-propyl)-2-((R)-3-methylmorpholin-4-yl)-8-trifluoromethyl-6,7,8,9-tetrahydro-pyrimido[1,2-a]-pyrimidin-4-one]", "values": [
      {"measurement": "IC50", "value": "< 10", "unit": "nM"}
    ]}
  ]
}
